Source: ChEMBL document CHEMBL1201861, “Genomics of Drug Sensitity in Cancer screening data, Wellcome Trust Sanger Institute”
“And” between values parts separate entries of the source, which are not always exact repeats. Equal entries are not always repeated.

Key:
Experiment in all cases: cells
COLO-678 = assay type: functional, cell-based, Homo sapiens
Description: SANGER: Inhibition of human COLO-678 cell growth in a cell viability assay.

SF-295 = assay type: functional, cell-based, Homo sapiens; details: read-out: IC50;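 further: growth inhibition of SF-295 cells, read out with a cell viability assay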
Description: SANGER: Inhibition of human SF295 cell growth in a cell viability assay.

LCLC-97TM1 = assay type: functional, cell-based, Homo sapiens;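 further: cell viability assay measuring growth inhibition of human LCLC-97TM1 cells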
Description: SANGER: Inhibition of human LCLC-97TM1 cell growth in a cell viability assay.

HT-3 = assay type: functional, cell-based, Homo sapiens;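 further: growth inhibition measured with a cell viability readout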
Description: SANGER: Inhibition of human HT-3 cell growth in a cell viability assay.

SK-HEP1 = assay type: functional, cell-based, Homo sapiens, SK-HEP-1;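 further: cell viability readout used to quantify reduction in proliferation of human SK-HEP-1 cells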
Description: SANGER: Inhibition of human SK-HEP-1 cell growth in a cell viability assay.

TE-9 = assay type: functional, cell-based, Homo sapiens;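 further: cell growth inhibition, measured with a cell viability readout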
Description: SANGER: Inhibition of human TE-9 cell growth in a cell viability assay.

NCI-H2087 = assay type: functional, cell-based, Homo sapiens;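 further: growth inhibition determined with a cell viability readout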
Description: SANGER: Inhibition of human NCI-H2087 cell growth in a cell viability assay.

Ca-Ski = assay type: functional, cell-based; details: Homo sapiens;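 further: cell viability assay measuring inhibition of Ca-Ski cell growth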
Description: SANGER: Inhibition of human Ca-Ski cell growth in a cell viability assay.

P12-Ichikawa = assay type: functional, cell-based; details: Homo sapiens
A3-KAW = assay type: functional, cell-based; details: Homo sapiens;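 further: growth inhibition of human A3-KAW cells, read out with a cell viability assay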
Description: SANGER: Inhibition of human A3-KAW cell growth in a cell viability assay.

LB2518-MEL = assay type: functional, cell-based, Homo sapiens;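 further: growth inhibition of human LB2518-MEL cells, measured with a cell viability assay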
Description: SANGER: Inhibition of human LB2518-MEL cell growth in a cell viability assay.

NCI-H2126 = assay type: functional, cell-based, Homo sapiens;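 further: growth inhibition of the cancer cell line, determined with a cell viability readout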
Description: SANGER: Inhibition of human NCI-H2126 cell growth in a cell viability assay.

HH = assay type: functional, cell-based; details: Homo sapiens
Description: SANGER: Inhibition of human HH cell growth in a cell viability assay.

LU-139 = assay type: functional, cell-based; details: Homo sapiens
Description: SANGER: Inhibition of human LU-139 cell growth in a cell viability assay.

HT = assay type: functional, cell-based; details: Homo sapiens
Description: SANGER: Inhibition of human HT cell growth in a cell viability assay.

NCI-H650 = assay type: functional, cell-based, Homo sapiens;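 further: growth inhibition of NCI-H650 cells, read out by a viability assay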
Description: SANGER: Inhibition of human NCI-H650 cell growth in a cell viability assay.

HEL = assay type: functional, cell-based, Homo sapiens;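 further: growth inhibition of HEL cells, read out with a cell viability assay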
Description: SANGER: Inhibition of human HEL cell growth in a cell viability assay.

Detroit 562 = assay type: functional, cell-based, Homo sapiens;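 further: growth inhibition of human Detroit 562 cells, read out by a cell viability assay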
Description: SANGER: Inhibition of human Detroit562 cell growth in a cell viability assay.

PA-1 = assay type: functional, cell-based, Homo sapiens;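 further: IC50 for suppression of PA-1 cell proliferation, determined with a cell viability read-out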
Description: SANGER: Inhibition of human PA-1 cell growth in a cell viability assay.

LAMA-84 = assay type: functional, cell-based; details: Homo sapiens;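 further: growth inhibition of LAMA-84 cells, read out with a cell viability assay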
Description: SANGER: Inhibition of human LAMA-84 cell growth in a cell viability assay.

TE-12 = assay type: functional, cell-based; details: Homo sapiens;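 further: growth inhibition of TE-12 cells, read out by a cell viability assay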
Description: SANGER: Inhibition of human TE-12 cell growth in a cell viability assay.

KYSE-520 cell line = assay type: functional, cell-based, Homo sapiens;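 further: growth inhibition of human KYSE-520 cells, read out with a viability assay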
Description: SANGER: Inhibition of human KYSE-520 cell growth in a cell viability assay.

KU-19-19 = assay type: functional, cell-based, Homo sapiens
Description: SANGER: Inhibition of human KU-19-19 cell growth in a cell viability assay.

HEC-1 = assay type: functional, cell-based, Homo sapiens;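 further: growth inhibition of the cell line, read out with a cell viability assay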
Description: SANGER: Inhibition of human HEC-1 cell growth in a cell viability assay.

ONS-76 = assay type: functional, cell-based, Homo sapiens;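 further: growth inhibition of human ONS-76 cells, read out with a cell viability assay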
Description: SANGER: Inhibition of human ONS-76 cell growth in a cell viability assay.

EW-13 = assay type: functional, cell-based; details: Homo sapiens;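 further: growth inhibition of EW-13 cells, read out with a cell viability assay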
Description: SANGER: Inhibition of human EW-13 cell growth in a cell viability assay.

NCI-H2228 = assay type: functional, cell-based, Homo sapiens;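 further: growth inhibition of human NCI-H2228 cells, read out by a cell viability assay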
Description: SANGER: Inhibition of human NCI-H2228 cell growth in a cell viability assay.

LS-513 = assay type: functional, cell-based, Homo sapiens
Description: SANGER: Inhibition of human LS-513 cell growth in a cell viability assay.

AGS = assay type: functional, cell-based, Homo sapiens;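 further: growth inhibition of AGS cells, determined with a cell viability assay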
Description: SANGER: Inhibition of human AGS cell growth in a cell viability assay.

AM-38 = assay type: functional, cell-based, Homo sapiens;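 further: growth inhibition of AM-38 cells of human origin, read out by a cell viability assay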
Description: SANGER: Inhibition of human AM-38 cell growth in a cell viability assay.

EM-2 = assay type: functional, cell-based; details: Homo sapiens;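 further: growth inhibition of EM-2 cells, read out with a cell viability assay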
Description: SANGER: Inhibition of human EM-2 cell growth in a cell viability assay.

NEC8 = assay type: functional, cell-based, Homo sapiens; details: nec8;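 further: growth inhibition of human NEC8 cells, read out by a cell viability assay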
Description: SANGER: Inhibition of human NEC8 cell growth in a cell viability assay.

PSN1 = assay type: functional, cell-based, Homo sapiens;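 further: suppression of growth of human PSN1 cells, read out by a cell viability assay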
Description: SANGER: Inhibition of human PSN1 cell growth in a cell viability assay.

GT3TKB = assay type: functional, cell-based, Homo sapiens;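 further: growth inhibition of the cell line, read out with a cell viability assay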
Description: SANGER: Inhibition of human GT3TKB cell growth in a cell viability assay.

NCI-H747 = assay type: functional, cell-based; details: Homo sapiens;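 further: growth inhibition of human NCI-H747 cells, read out by a cell viability assay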
Description: SANGER: Inhibition of human NCI-H747 cell growth in a cell viability assay.

COLO-824 = assay type: functional, cell-based, Homo sapiens
Description: SANGER: Inhibition of human COLO-824 cell growth in a cell viability assay.

NOS-1 = assay type: functional, cell-based, Homo sapiens;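 further: growth inhibition of the human NOS-1 cell line, read out with a cell viability assay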
Description: SANGER: Inhibition of human NOS-1 cell growth in a cell viability assay.

Capan-2 = assay type: functional, cell-based, Homo sapiens;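 further: Capan-2 cell growth inhibition, read out with a viability assay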
Description: SANGER: Inhibition of human Capan-2 cell growth in a cell viability assay.

CW-2 = assay type: functional, cell-based, Homo sapiens;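 further: growth inhibition of CW-2 cells, read out by a cell viability assay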
Description: SANGER: Inhibition of human CW-2 cell growth in a cell viability assay.

Ca9-22 = assay type: functional, cell-based, Homo sapiens;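 further: growth inhibition of Ca9-22 cells, read out with a cell viability assay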
Description: SANGER: Inhibition of human Ca9-22 cell growth in a cell viability assay.

RERF-LC-MS = assay type: functional, cell-based, Homo sapiens;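 further: growth inhibition of human RERF-LC-MS cells, read out by a cell viability assay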
Description: SANGER: Inhibition of human RERF-LC-MS cell growth in a cell viability assay.

LS-411N = assay type: functional, cell-based, Homo sapiens
MPP-89 = assay type: functional, cell-based, Homo sapiens;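 further: growth inhibition of human MPP-89 cells, read out with a cell viability assay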
Description: SANGER: Inhibition of human MPP-89 cell growth in a cell viability assay.

NCI-H720 = assay type: functional, cell-based; details: Homo sapiens;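 further: growth inhibition of human NCI-H720 cells determined by a cell viability assay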
Description: SANGER: Inhibition of human NCI-H720 cell growth in a cell viability assay.

A-431 = assay type: functional, cell-based, Homo sapiens;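 further: growth inhibition of A-431 cells, determined with a cell viability read-out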
Description: SANGER: Inhibition of human A431 cell growth in a cell viability assay.

SW837 = assay type: functional, cell-based, Homo sapiens;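 further: growth inhibition of SW837 cells, determined with a cell viability assay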
Description: SANGER: Inhibition of human SW837 cell growth in a cell viability assay.

HPAF-II = assay type: functional, cell-based, Homo sapiens;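 further: growth inhibition of HPAF-II cells, read out with a cell viability assay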
Description: SANGER: Inhibition of human HPAF-II cell growth in a cell viability assay.

A-375 = assay type: functional, cell-based, Homo sapiens;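 further: growth inhibition of A375 cells, read out with a cell viability assay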
Description: SANGER: Inhibition of human A375 cell growth in a cell viability assay.

CAL-85-1 = assay type: functional, cell-based; details: Homo sapiens;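 further: growth inhibition of human CAL-85-1 cells, read out with a cell viability assay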
Description: SANGER: Inhibition of human CAL-85-1 cell growth in a cell viability assay.

FaDu = assay type: functional, cell-based, Homo sapiens;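 further: cell viability readout of growth inhibition in FaDu cells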
Description: SANGER: Inhibition of human FADU cell growth in a cell viability assay.

PC-3 = assay type: functional, cell-based, Homo sapiens;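 further: cell viability assay measuring growth inhibition of PC-3 cells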
Description: SANGER: Inhibition of human PC-3 cell growth in a cell viability assay.

J82 = assay type: functional, cell-based; details: Homo sapiens;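 further: growth inhibition of J82 cells, read out with a cell viability assay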
Description: SANGER: Inhibition of human J82 cell growth in a cell viability assay.

For `Cc1cc([C@@H](C)Nc2ccccc2C(=O)O)c2nc(N3CCOCC3)cc(=O)n2c1` [AZD-6482], the IC50 (COLO-678; colo-678) was > 5.12 µM, the IC50 (SF-295; sf-295) was 2.77 µM and > 5.12 µM and the IC50 (LCLC-97TM1; Homo sapiens, LCLC-97TM1) was > 5.12 µM. The IC50 (LCLC-97TM1; lclc-97tm1) was > 5.12 µM, the IC50 (HT-3; ht-3) was > 5.12 µM and the IC50 (SK-HEP1; Homo sapiens, SK-HEP1) was > 5.12 µM. For the same molecule, the IC50 (SK-HEP1; sk-hep-1) was > 5.12 µM, the IC50 (TE-9; te-9) was > 5.12 µM and the IC50 (NCI-H2087; Homo sapiens, NCI-H2087) was > 5.12 µM. For the same molecule, the IC50 (NCI-H2087; nci-h2087) was > 5.12 µM, the IC50 (Ca-Ski) was 1.93 µM and the IC50 (P12-Ichikawa) was > 5.12 µM. The IC50 (A3-KAW) was > 5.12 µM, the IC50 (LB2518-MEL; Homo sapiens, LB2518-MEL) was > 5.12 µM and the IC50 (LB2518-MEL; lb2518-mel) was > 5.12 µM. The IC50 (NCI-H2126; nci-h2126) was > 5.12 µM, the IC50 (HH) was 0.962 µM and the IC50 (LU-139) was > 5.12 µM. The IC50 (HT) was 4.02 µM, the IC50 (NCI-H650; nci-h650) was 1.3 µM and > 5.12 µM and the IC50 (HEL; hel) was > 5.12 µM. For the same molecule, the IC50 (Detroit 562; detroit 562) was 1.05 µM and 2.13 µM, the IC50 (PA-1; pa-1) was > 5.12 µM and 2.43 µM and the IC50 (LAMA-84) was > 5.12 µM. The IC50 (TE-12) was > 5.12 µM, the IC50 (KYSE-520 cell line; Homo sapiens, KYSE-520) was > 5.12 µM and the IC50 (KYSE-520 cell line; kyse-520) was > 5.12 µM. For the same molecule, the IC50 (KU-19-19; ku-19-19) was > 5.12 µM, the IC50 (HEC-1; Homo sapiens, HEC-1) was > 5.12 µM and the IC50 (HEC-1; hec-1) was > 5.12 µM. For the same molecule, the IC50 (ONS-76; ons-76) was > 5.12 µM, the IC50 (EW-13) was > 5.12 µM and the IC50 (NCI-H2228; nci-h2228) was > 5.12 µM. The IC50 (LS-513; Homo sapiens, LS-513) was > 5.12 µM, the IC50 (LS-513; ls-513) was > 5.12 µM and the IC50 (AGS; Homo sapiens, AGS) was > 5.12 µM. The IC50 (AGS; ags) was > 5.12 µM, the IC50 (AM-38; am-38) was > 5.12 µM and the IC50 (EM-2) was > 5.12 µM. For the same molecule, the IC50 (NEC8) was > 5.12 µM and 3.81 µM, the IC50 (PSN1; psn1) was > 5.12 µM and the IC50 (GT3TKB; gt3tkb) was > 5.12 µM. For the same molecule, the IC50 (NCI-H747) was > 5.12 µM, the IC50 (COLO-824; colo-824) was > 5.12 µM and the IC50 (NOS-1; Homo sapiens, NOS-1) was > 5.12 µM. For the same molecule, the IC50 (NOS-1; nos-1) was > 5.12 µM, the IC50 (Capan-2; capan-2) was > 5.12 µM and the IC50 (CW-2; cw-2) was > 5.12 µM. For the same molecule, the IC50 (Ca9-22; ca9-22) was > 5.12 µM, the IC50 (RERF-LC-MS; rerf-lc-ms) was > 5.12 µM and 4.34 µM and the IC50 (LS-411N; Homo sapiens, LS-411N) was > 5.12 µM. The IC50 (LS-411N; ls-411n) was > 5.12 µM, the IC50 (MPP-89; mpp-89) was > 5.12 µM and the IC50 (NCI-H720) was > 5.12 µM. For the same molecule, the IC50 (A-431; a-431) was > 5.12 µM, the IC50 (SW837; sw837) was > 5.12 µM and the IC50 (HPAF-II; hpaf-ii) was > 5.12 µM. For the same molecule, the IC50 (A-375; a-375) was > 5.12 µM, the IC50 (CAL-85-1) was 2.28 µM and the IC50 (FaDu; Homo sapiens, FaDu) was > 5.12 µM. For the same molecule, the IC50 (FaDu; fadu) was > 5.12 µM and the IC50 (PC-3; pc-3) was > 5.12 µM.

`Cn1cc(C2=C(c3ccc(Cl)cc3Cl)C(=O)NC2=O)c2ccccc21` [SB-216763] was tested, and the IC50 (COLO-678; Homo sapiens, COLO-678) was > 10 µM, the IC50 (SF-295; Homo sapiens, SF-295) was > 10 µM and the IC50 (LCLC-97TM1; Homo sapiens, LCLC-97TM1) was > 10 µM. The IC50 (HT-3; Homo sapiens, HT-3) was > 10 µM, the IC50 (SK-HEP1; Homo sapiens, SK-HEP1) was > 10 µM and the IC50 (TE-9; Homo sapiens, TE-9) was > 10 µM. The IC50 (NCI-H2087; Homo sapiens, NCI-H2087) was > 10 µM, the IC50 (Ca-Ski) was > 10 µM and the IC50 (P12-Ichikawa) was > 10 µM. For the same molecule, the IC50 (A3-KAW) was > 10 µM, the IC50 (LB2518-MEL; Homo sapiens, LB2518-MEL) was > 10 µM and the IC50 (NCI-H2126; Homo sapiens, NCI-H2126) was > 10 µM. For the same molecule, the IC50 (HH) was > 10 µM, the IC50 (LU-139) was > 10 µM and the IC50 (HT) was > 10 µM. The IC50 (NCI-H650; Homo sapiens, NCI-H650) was > 10 µM, the IC50 (HEL; Homo sapiens, HEL) was > 10 µM and the IC50 (Detroit 562; Homo sapiens, Detroit 562) was > 10 µM. For the same molecule, the IC50 (PA-1; Homo sapiens, PA-1) was > 10 µM, the IC50 (LAMA-84) was > 10 µM and the IC50 (TE-12) was > 10 µM. The IC50 (KYSE-520 cell line; Homo sapiens, KYSE-520) was > 10 µM, the IC50 (J82) was > 10 µM and the IC50 (KU-19-19; Homo sapiens, KU-19-19) was > 10 µM. The IC50 (HEC-1; Homo sapiens, HEC-1) was > 10 µM, the IC50 (ONS-76; Homo sapiens, ONS-76) was > 10 µM and the IC50 (EW-13) was > 10 µM. The IC50 (NCI-H2228; Homo sapiens, NCI-H2228) was > 10 µM, the IC50 (LS-513; Homo sapiens, LS-513) was > 10 µM and the IC50 (AGS; Homo sapiens, AGS) was > 10 µM. For the same molecule, the IC50 (AM-38; Homo sapiens, AM-38) was > 10 µM, the IC50 (EM-2) was > 10 µM and the IC50 (PSN1; Homo sapiens, PSN1) was > 10 µM. The IC50 (GT3TKB; Homo sapiens, GT3TKB) was > 10 µM, the IC50 (NCI-H747) was > 10 µM and the IC50 (COLO-824; Homo sapiens, COLO-824) was > 10 µM. The IC50 (NOS-1; Homo sapiens, NOS-1) was > 10 µM, the IC50 (Capan-2; Homo sapiens, Capan-2) was > 10 µM and the IC50 (CW-2; Homo sapiens, CW-2) was > 10 µM. For the same molecule, the IC50 (Ca9-22; Homo sapiens, Ca9-22) was > 10 µM, the IC50 (RERF-LC-MS; Homo sapiens, RERF-LC-MS) was > 10 µM and the IC50 (LS-411N; Homo sapiens, LS-411N) was > 10 µM. The IC50 (MPP-89; Homo sapiens, MPP-89) was > 10 µM, the IC50 (A-431; Homo sapiens, A-431) was > 10 µM and the IC50 (SW837; Homo sapiens, SW837) was > 10 µM. The IC50 (HPAF-II; Homo sapiens, HPAF-II) was > 10 µM, the IC50 (A-375; Homo sapiens, A-375) was > 10 µM and the IC50 (CAL-85-1) was > 10 µM. For the same molecule, the IC50 (FaDu; Homo sapiens, FaDu) was > 10 µM and the IC50 (PC-3; Homo sapiens, PC-3) was > 10 µM.
